Results published in US20060269928A1, “Compositions, methods and apparatus for supercritical fluid virus inactivation” (Aphios Corporation, priority 2005, published 2006).
“And” between values parts separate entries of the source, which are not always exact repeats. Equal entries are not always repeated. Where two headings read alike, the source gives them in different places. Marks after values point to notes of the source that are not given here.

Key:
[1] = test system: encephalomyocarditis (EMC) virus; format: cell-based
[2] = test system: HIV-1Δtat-rev; conditions: 3,000 psig, 22 °C, single-stage; for −Log10 Inactivation: versus time and temperature control; for Log10 TCID50/ml (CFI-treated): virus supernatant diluted 1:10 in RPMI
[3] = test system: HIV-1 p24; conditions: 3,000 psig, 22 °C, single-stage; for Δp24 [% Change]: versus t & T control
[4] = test system: vesicular stomatitis virus (VSV); format: cell-based; conditions: for −log10 Kill: 3,000 psig, 50 °C, single stage, matrix FBS; for −log10 reduction: 4,000 psig, <1 min
[5] = test system: Human Adenovirus, Type 5; format: cell-based
[6] = test system: Poliovirus; format: cell-based; conditions: 3,000 psig, 50 °C, single stage, matrix FBS
[7] = test system: Hepatitis A (HAV) virus; format: cell-based
[8] = test system: Reovirus; format: cell-based
[9] = test system: Sindbis; format: cell-based
[10] = test system: TGE; format: cell-based
[11] = test system: Bovine Diarrhea Virus (BVD); format: cell-based
[12] = test system: parvovirus B19; test: B19 DNA titre of CFI-treated plasma samples; parameters: species or system human parvovirus B19; conditions: 206 bars, 4 ml/min
Experimental: The conditions of different experiments performed for NIBSC, London, England with parvovirus B19-spiked in human plasma samples free of B19 antibodies are recorded in Table 16. […] Five or six samples were produced in each of the six experiments. A 2.5 ml aliquot of the feed was taken at the start of the treatment and stored at 4° C. during the run (named “before”) and a second 2.5 ml sample was placed at the same temperature as the SCoNCF system for the same duration as a control (named “time and temperature”). Once the system (isobaric chamber, connecting lines, valves and gauges) was pressurized with the supercritical fluid, the sample was pumped through the isobaric chamber at the rate of 4 ml/min. […] Finally, the system was depressurized to atmospheric pressure (1.01 bars).

[13] = test system: parvovirus B19; test: B19 infectivity assay of CFI-treated plasma samples; format: cell-based, human parvovirus B19; conditions: 206 bars; for Infectious Units per ml, CFI-Treated Samples: 4 ml/min
[14] = test system: murine leukemia virus (MuLV); test: SCoNCF CFI inactivation of murine leukemia virus in laminar flow injection unit; format: cell-based, murine-C retrovirus (MuLV); conditions: 2,000 psig, 22 °C, <1 min
[15] = Expt 01: 50 °C, 2 stages, human plasma
[16] = Expt 02/04: 25 °C, 1 stage, volumetric average of two samples

Question: FC(Cl)C(F)(F)F (stereo not drawn) [Fr-124] was tested. Which “−log10 Kill” value [1] did it give?
Answer: 0.5 and 0.4

Question: What does the source list for N#N [N2]?
Answer: −Log10 Inactivation [2]: >5.1; Log10 TCID50/ml (CFI-treated) [2]: undetected; p24 [CFI-treated] [3]: 143 ng/mL; Δp24 [% Change] [3]: +34%

Question: How did the “−log10 Kill” value [4] turn out when FC(F)Cl [FREON-22, hydrodifluorochloromethane] was run?
Answer: >6.5 and >6.6

Question: What about the “−log10 Kill” value ([4]; listed as Freon-22) of the same compound?
Answer: > 6.6 and > 6.5

Question: And the “EMC inactivated on the average” value [1]?
Answer: ~6 logs

Question: And the “EMC inactivation on the average” value [1]?
Answer: 5.7 logs

Question: What about the “increase of inactivation for every 10 °C increase in temperature” value [1] of the same compound?
Answer: ~1 log

Question: And the “−log10 Kill” value [5]?
Answer: >5.3 and >5.1

Question: And the “−log10 Kill” value [6]?
Answer: 4.1 and 4.2

Question: What about the “−log10 Kill” value ([6]; listed as Freon-22) of the same compound?
Answer: 4.1 and 4.2

Question: And the “−log10 Kill” value [7]?
Answer: 1.3 and 1.0

Question: And the “−log10 Kill” value [8]?
Answer: 0.9 and 1.0

Question: What about the “−log10 Kill” value [9] of the same compound?
Answer: >6.5

Question: And the “−log10 Kill” value [10]?
Answer: >2.5 and >2.6

Question: And the “−log10 Kill” value [11]?
Answer: 2.3

Question: And the “B19 DNA Titre (IU/ml), CFI-Treated Samples” value (shortened to “B19 DNA Titre (IU/ml)”) [12, 15]?
Answer: 5 × 10^10 IU/ml

Question: What about the “B19 DNA Titre (IU/ml)” value [12, 16] of the same compound?
Answer: 2 × 10^11* IU/ml

Question: And the “change in infectivity titer compared with the untreated sample” value ([13]; 50 °C, two-stage laminar flow CFI unit)?
Answer: ~2 log10

Question: What about the “Infectious Units per ml, CFI-Treated Samples” value (“Infectious Units per ml” for short) [13, 15] of the same compound?
Answer: 5 × 10^3 Infectious Units per ml

Question: What about the “Infectious Units per ml” value [13, 16] of the same compound?
Answer: 2 × 10^5* Infectious Units per ml

Question: And the “−Log10 Inactivation” value [2]?
Answer: >5.1

Question: And the “Log10 TCID50/ml (CFI-treated)” value [2]?
Answer: undetected

Question: And the “p24 [CFI-treated]” value [3]?
Answer: 112 ng/mL

Question: And the “Δp24 [% Change]” value [3]?
Answer: −7%

Question: FC(F)F [Fr-23, trifluoromethane] was tested. Which “EMC inactivated on the average” value [1] did it give?
Answer: ~3 logs

Question: And the “B19 DNA Titre (IU/ml)” value [12, 16]?
Answer: 2.5 × 10^10* IU/ml

Question: And the “Infectious Units per ml” value [13, 16]?
Answer: 1.7 × 10^6* Infectious Units per ml

Question: And the “−Log10 Inactivation” value [2]?
Answer: >3.7

Question: What about the “Log10 TCID50/ml (CFI-treated)” value [2] of the same compound?
Answer: undetected

Question: What about the “p24 [CFI-treated]” value [3] of the same compound?
Answer: 20 ng/mL

Question: What about the “Δp24 [% Change]” value [3] of the same compound?
Answer: +43%

Question: Which “−Log10 Inactivation” value [2] does the source give for O=C=O [CO2, carbon dioxide] here?
Answer: >3.7

Question: What about the “Log10 TCID50/ml (CFI-treated)” value [2] of the same compound?
Answer: undetected

Question: And the “p24 [CFI-treated]” value [3]?
Answer: 15 ng/mL

Question: And the “Δp24 [% Change]” value [3]?
Answer: +7%

Question: CCC [C3H8, Propane] was tested. Which “−Log10 Inactivation” value [2] did it give?
Answer: 0.9

Question: What about the “Log10 TCID50/ml (CFI-treated)” value [2] of the same compound?
Answer: 4.1

Question: And the “p24 [CFI-treated]” value [3]?
Answer: 175 ng/mL

Question: And the “Δp24 [% Change]” value [3]?
Answer: +20%

Question: For [N-]=[N+]=O [NITROUS OXIDE, nitrous oxide], which “−log10 reduction” value ([14]; 1 stage) is on record?
Answer: 2.3 and 2.0

Question: What about the “−log10 reduction” value ([14]; 1 stage, listed as nitrous oxide) of the same compound?
Answer: about 2

Question: What about the “−log10 reduction” value ([14]; 2 stages) of the same compound?
Answer: >5.5

Question: And the “−log10 reduction” value ([14]; 2 stages, listed as nitrous oxide)?
Answer: greater than 5.5

Question: And the “−log10 reduction” value ([4]; 40 °C, 1 stage)?
Answer: 2.5

Question: And the “−log10 reduction” value ([4]; 40 °C, 2 stages)?
Answer: >5.5

Question: What about the inactivation ([4]; 5,000 psig, 22 °C) of the same compound?
Answer: ~2 logs

Question: What about the average inactivation ([4]; 5,000 psig, 40 °C) of the same compound?
Answer: 4 logs

Question: What about the “−Log10 Inactivation” value [2] of the same compound?
Answer: >2.8

Question: What about the “Log10 TCID50/ml (CFI-treated)” value [2] of the same compound?
Answer: undetected

Question: What about the “p24 [CFI-treated]” value [3] of the same compound?
Answer: 70 ng/mL

Question: What about the “Δp24 [% Change]” value [3] of the same compound?
Answer: +25%
